{"source": "patent US20230151431A1", "about": "“METHODS AND COMPOSITIONS FOR IDENTIFYING AND TREATING GLUTAMINASE INHIBITOR-SENSITIVE CANCERS” (DANA-FARBER CANCER INSTITUTE, INC., priority 2020, published 2023)", "key": {"LU99 cells": {"test_system": "LU99 cells", "test": "CellTiter-Glo cell viability, LU99 wild type cells", "assay_type": "cell-based", "details": "Homo sapiens, Lu-99, read-out: IC50 (percent viability)", "experimental": "(§1) Cell viability was assayed using a modified manufacturer's protocol for CellTiter-Glo® (Promega #G7573). Cells were seeded at a density of 2000 cells per well in a 96 well black, clear bottom plate (Corning #89091-012) in 100 uL total media per well. The following day different concentrations of compounds at various doses were printed in triplicate in a random well format using the Tecan D300e Digital Dispenser. After 72 hours, 60 μL of a 1:3 solution of CellTiterGlo reagent in 1×PBS (Corning #01018002) was added per well and allowed to incubate at RT for 10 mins. Luminescence was measured with an integration time of 0.1 s using Envision Microplates Reader (PERKIN ELMER #2105-0010). Biological replicates were averaged and normalized to vehicle control. Dose curves were generated using Graphpad Prism."}, "[1]": {"test_system": "LU99 cells with ectopic expression of FAM3B", "test": "CellTiter-Glo cell viability, LU99 cells with ectopic expression of FAM3B", "assay_type": "cell-based, human", "experimental": "as §1"}, "NCI-H2122 cells": {"test_system": "NCI-H2122 cells", "test": "Cell viability, NCI-H2122 cells with SLC7A11 knock-out and/or SLC25A45 over-expression", "assay_type": "cell-based, human", "details": "for effect of SLC7A11 knock-out and SLC25A45 over-expression on cell viability under treatment: SLC7A11 knock-out or SLC25A45 over-expression vs wild type", "experimental": "as §1"}, "[2]": {"test_system": "SLC7A11 knock-out LU99 cells", "test": "CellTiter-Glo cell viability, SLC7A11 knock-out LU99 cells vs LacZ control", "assay_type": "cell-based, human", "experimental": "as §1"}, "[3]": {"test_system": "LU99 cells over-expressing SLC25A45", "test": "CellTiter-Glo cell viability, LU99 cells over-expressing SLC25A45", "assay_type": "cell-based", "details": "Homo sapiens, Lu-99, SLC25A45 overexpression", "experimental": "as §1"}, "500 cancer cell lines": {"test_system": "500 cancer cell lines", "test": "PRISM multiplex cancer cell line viability screen", "assay_type": "cell-based, human", "details": "5,000 small molecules against 500 cancer cell lines", "experimental": "Parental cell lines were obtained from the Cancer Cell Line Encyclopedia (CCLE) project. PRISM cell line barcoding, pooling, and screening was performed as previously described with several improvements to the original method. First, the lentiviral vector was modified to encode the unique barcode identifier at the end of the puromycin resistance gene. This enables barcodes to be detected using a variant of the mRNA capture and Luminex detection method developed for the L1000 gene expression assay. Second, a set of ten inert barcodes were spiked-in to each well of each plate after cell lysis to control for variation in PCR amplification as detailed below.\nLuminex technology produced .Ixb files containing data for each Luminex bead observed during detection. These .Ixb files were processed to compute Median Fluorescence Intensity (MFI) values, calculated as the median of the values obtained for all beads corresponding to a single PRISM barcode. […]\nFor each cell line on each plate, the distribution of MFI values observed for the DMSO-treated negative controls was compared to that of the positive controls using a robust form of the Strictly Standardized Mean Difference (SSMD*)’. Specifically, SSMD* was calculated as: […]\nCell viability was calculated as the ratio of nMFI to the median of the nMFI from the DMSO-treated negative controls for each cell line on each plate. […]"}, "[4]": {"test_system": "multiple solid tumor and hematopoietic cancer types", "details": "monotherapy, phase 1 clinical trials; cited from earlier work"}}}
{"smiles": "CC(=O)O[C@H]1C(=O)[C@@]2(C)[C@H]([C@H](OC(=O)c3ccccc3)[C@]3(O)C[C@H](OC(=O)[C@H](O)[C@@H](NC(=O)c4ccccc4)c4ccccc4)C(C)=C1C3(C)C)[C@]1(OC(C)=O)CO[C@@H]1C[C@@H]2O", "note": "[Paclitaxel]", "values": [{"measurement": "IC50", "setting": "LU99 cells", "result": 2.2, "unit": "nM"}, {"measurement": "change in effects on cell death by ectopic FAM3B expression", "setting": "[1]; ectopic FAM3B vs wild type", "result": "no change"}, {"measurement": "effect of SLC7A11 knock-out and SLC25A45 over-expression on cell viability under treatment", "setting": "NCI-H2122 cells", "result": "no significant rescue of sensitivity"}]}
{"smiles": "O=C(Cc1cccc(OC(F)(F)F)c1)Nc1ccc(CCCCc2nnc(NC(=O)Cc3ccccn3)[se]2)nn1", "note": "[Glutaminase IN 1]", "values": [{"measurement": "rescue from inhibitor-induced cell killing by knock-out of SLC7A11", "setting": "[2]", "result": "rescued sensitivity"}, {"measurement": "effect of SLC7A11 knock-out and SLC25A45 over-expression on cell viability under treatment", "setting": "NCI-H2122 cells", "result": "increase cell viability"}]}
{"smiles": "CN(C)c1ccc(C2Nc3ccc4ccccc4c3C3=C2C(=O)CC(C)(C)C3)cc1Br", "note": "(centres unmarked) [compound 968]", "values": [{"measurement": "rescue from inhibitor-induced cell killing by knock-out of SLC7A11", "setting": "[2]", "result": "not rescued"}, {"measurement": "effect of SLC7A11 knock-out and SLC25A45 over-expression on cell viability under treatment", "setting": "NCI-H2122 cells", "result": "no significant rescue of sensitivity"}]}
{"smiles": "O=C(Cc1ccccc1)Nc1nnc(CCSCCc2nnc(NC(=O)Cc3ccccc3)s2)s1", "note": "[BPTES, Bis-2-(5-phenylacetamido-1,3,4-thiadiazol-2-yl)ethyl sulfide]", "values": [{"measurement": "rescue from inhibitor-induced cell killing by knock-out of SLC7A11", "setting": "[2]", "result": "rescued sensitivity"}, {"measurement": "effect of SLC7A11 knock-out and SLC25A45 over-expression on cell viability under treatment", "setting": "NCI-H2122 cells", "result": "increase cell viability"}]}
{"smiles": "O=C(Cc1cccc(OC(F)(F)F)c1)Nc1ccc(CCCCc2nnc(NC(=O)Cc3ccccn3)s2)nn1", "note": "[Telaglenastat]", "values": [{"measurement": "IC50", "setting": "LU99 cells", "result": 1.2, "unit": "nM"}, {"measurement": "IC50", "setting": "[3]", "result": 22, "unit": "nM"}, {"measurement": "rescue from inhibitor-induced cell killing by knock-out of SLC7A11", "setting": "[2]", "result": "rescued"}, {"measurement": "IC50", "setting": "[1]; Homo sapiens, Lu-99, ectopic expression of FAM3B", "result": "> 10000", "unit": "nM"}, {"measurement": "effect of SLC7A11 knock-out and SLC25A45 over-expression on cell viability under treatment", "setting": "NCI-H2122 cells", "result": "increase cell viability"}, {"measurement": "sensitivity of cells with combined SLC7A11 knock-out and SLC25A45 over-expression", "setting": "NCI-H2122 cells; combination of SLC7A11 knock-out and SLC25A45 over-expression", "result": "almost completely resistant"}, {"measurement": "cell line killing in PRISM screen", "setting": "500 cancer cell lines", "result": "selectively kill cell lines across a broad range of lineages"}, {"measurement": "clinical response", "setting": "[4]", "result": "only occasional responses"}]}
